Blank lines part the entries; values can stand above or below the compound they belong to. Active and inactive are the calls of the source.
Experiments:
Interleukin-8 [1] = molecular target: T1, Interleukin-8 (Homo sapiens, UniProt P10145); experiment: SAR analysis of GM-Tri-DAP induced IL-8 secretion in MCF-7/NOD1 cells - Set 2. [Related pubchem assays (depositor defined):AID1575, AID1578, AID2333]; assay type: functional, cell-based
T1 sequence (P10145 whole entry): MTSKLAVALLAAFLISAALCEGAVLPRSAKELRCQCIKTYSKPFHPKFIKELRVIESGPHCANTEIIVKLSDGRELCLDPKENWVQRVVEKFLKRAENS

[2] = molecular target: T2, Nucleotide-binding oligomerization domain-containing protein 1 (Homo sapiens, UniProt Q9Y239); experiment: SAR analysis of compounds that inhibit NOD1 - Set 3. [Related pubchem assays (depositor defined):AID1566, AID1575, AID1578, AID1849, AID1852, AID2333, AID2335, AID2466]; assay type: functional
T2 sequence (Q9Y239 whole entry): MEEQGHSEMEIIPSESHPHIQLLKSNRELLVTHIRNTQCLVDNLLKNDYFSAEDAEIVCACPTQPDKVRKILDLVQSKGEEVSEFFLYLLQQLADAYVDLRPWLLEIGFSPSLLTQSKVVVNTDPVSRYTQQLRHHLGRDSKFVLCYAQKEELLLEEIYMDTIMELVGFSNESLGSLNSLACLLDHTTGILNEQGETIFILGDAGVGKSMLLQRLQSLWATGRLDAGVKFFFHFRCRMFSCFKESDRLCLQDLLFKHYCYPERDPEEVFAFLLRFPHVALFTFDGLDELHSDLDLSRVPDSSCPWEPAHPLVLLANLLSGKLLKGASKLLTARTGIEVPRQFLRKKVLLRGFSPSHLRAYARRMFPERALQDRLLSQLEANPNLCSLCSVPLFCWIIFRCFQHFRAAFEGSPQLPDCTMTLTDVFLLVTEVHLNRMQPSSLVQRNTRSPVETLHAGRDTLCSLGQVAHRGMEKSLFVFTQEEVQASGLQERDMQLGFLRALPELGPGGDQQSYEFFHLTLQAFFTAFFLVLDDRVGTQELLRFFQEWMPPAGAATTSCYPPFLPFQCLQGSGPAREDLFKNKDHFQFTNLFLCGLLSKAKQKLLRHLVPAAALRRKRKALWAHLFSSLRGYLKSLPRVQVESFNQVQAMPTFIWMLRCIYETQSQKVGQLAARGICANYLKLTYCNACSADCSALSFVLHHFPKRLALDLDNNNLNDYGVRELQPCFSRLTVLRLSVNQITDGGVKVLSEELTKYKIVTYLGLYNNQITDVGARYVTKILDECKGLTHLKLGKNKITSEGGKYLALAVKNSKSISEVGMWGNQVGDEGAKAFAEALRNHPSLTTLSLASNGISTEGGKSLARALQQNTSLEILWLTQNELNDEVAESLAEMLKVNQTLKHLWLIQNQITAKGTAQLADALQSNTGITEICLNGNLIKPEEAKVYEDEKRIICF

[3] = molecular target: T2, Nucleotide-binding oligomerization domain-containing protein 1; experiment: SAR analysis of NF-kappaB dependent luciferase using DAP as an inducer - Set 2. [Related pubchem assays (depositor defined):AID1566, AID1575, AID1578, AID1579, AID1849, AID1852, AID2264]; assay type: functional
[4] = molecular target: T3, Nucleotide-binding oligomerization domain-containing protein 2 (Homo sapiens, UniProt Q9HC29); experiment: inhibition of NOD2 signaling – set 2, SAR follow-up (AID 2475); assay type: functional
[5] = molecular target: T2, Nucleotide-binding oligomerization domain-containing protein 1; experiment: SAR analysis of compounds that inhibit NOD1 - Set 2. [Related pubchem assays (depositor defined):AID1566, AID1575, AID1578, AID1849, AID1852, AID2333, AID2335, AID2798]; assay type: functional
[6] = molecular target: T3, Nucleotide-binding oligomerization domain-containing protein 2; experiment: inhibition of MDP-driven NOD2 NF-kB reporter – cell-based, set 3, SAR follow-up (AID 2799); assay type: functional
HEK293 [7] = experiment: SAR analysis of compounds that are cytotoxic to HEK293 - Set 2. [Related pubchem assays (depositor defined):AID1575, AID1578, AID1849, AID2001, AID2333, AID2334, AID2335, AID2337, AID2800]; assay type: functional, cell-based; details: Homo sapiens
HEK293 [8] = experiment: SAR analysis of compounds that are cytotoxic to HEK293 - Set 3. [Related pubchem assays (depositor defined):AID1575, AID1578, AID1848, AID1849, AID2001, AID2333, AID2334, AID2335, AID2337, AID2469]; assay type: functional, cell-based; details: Homo sapiens
Tumor necrosis factor = Tumor necrosis factor (Homo sapiens, UniProt P01375); experiment: analog potency on TNFa NF-kB signaling – cell-based, set 3, SAR follow-up (AID 2801); assay type: functional
Interleukin-8 [9] = molecular target: T1, Interleukin-8; experiment: SAR analysis of Tumor necrosis factor alpha (TNF-alpha) induced IL-8 secretion in MCF-7/NOD1 cells - Set 2. [Related pubchem assays (depositor defined):AID1575, AID2250, AID2260]; assay type: functional, cell-based
Estrogen receptor beta [10] = molecular target: T4, Estrogen receptor beta (Homo sapiens, UniProt Q92731);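 note: recombinant ER-beta bound to coactivator SRC1 peptide in presence of estradiol agonist; inhibitors block coactivator peptide binding and lower the FRET signal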
Bcl-2-like protein 10 = Bcl-2-like protein 10 (Homo sapiens, UniProt Q9HD36); experiment: Bcl-B/TR3 peptide binding disruption – biochemical, fluorescence polarization, FITC-TR3 peptide, selectivity assay for Bfl-1 inhibitor project, primary screen (AID 748);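 note: fluorescence polarization from a fluorescein-labelled TR3 peptide binding purified Bcl-B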
Estrogen receptor beta [11] = molecular target: T4, Estrogen receptor beta; experiment: blockers of SRC-3 recruitment to ERβ – biochemical, ELISA, streptavidin-HRP readout, orthogonal assay, confirmation (AID 1060)
Vibrio harveyi [12] = experiment: LuxS/LuxPQ-dependent luminescence inhibition, V. harveyi – dry powder, set 2, dose response (AID 493072); assay type: functional, organism-based
Vibrio harveyi [13] = experiment: Quorum Sensing, LuxS, LuxPQ Measured in Microorganism System Using Plate Reader - 2035-01_Inhibitor_DoseNoFile_DryPowder_Activity. [Related pubchem assays (depositor defined):AID2106]; assay type: functional, organism-based
Protein Rev = Protein Rev (Human immunodeficiency virus type 1 group M subtype B (isolate WMJ22)(HIV-1), UniProt P05866); experiment: inhibitors of Rev protein–RRE RNA complex – biochemical, protein-RNA interaction, dose response (AID 842); parameters: species or system Human immunodeficiency virus 1
Wee1-like protein kinase = Wee1-like protein kinase (Homo sapiens, UniProt P30291); experiment: HeLa cell cycle G2/M accumulation – FACS, mechanism study for Wee1 degradation inhibitor project, late-stage follow-up, panel member Wee1 Degradation (AID 2088)
[14] = molecular target: G2/mitotic-specific cyclin-B1 (Homo sapiens, UniProt P14635); experiment: HeLa cell cycle G2/M accumulation – FACS, mechanism study for Wee1 degradation inhibitor project, late-stage follow-up, panel member Cyclin B Degradation (AID 2088)
[15] = molecular target: T5, Intestinal-type alkaline phosphatase (Homo sapiens, UniProt P09923); experiment: Dose Response confirmation of uHTS hits from a small molecule inhibitors of human intestinal alkaline phosphatase via a luminescent assay. [Related pubchem assays (depositor defined):AID2544, AID2574]; assay type: functional
[16] = molecular target: T5, Intestinal-type alkaline phosphatase; experiment: human intestinal alkaline phosphatase activators, dose response, biochemical, luminescence, uHTS hits (AID 463120); assay type: functional

T3 sequence (Q9HC29 whole entry, the tested form may be a part): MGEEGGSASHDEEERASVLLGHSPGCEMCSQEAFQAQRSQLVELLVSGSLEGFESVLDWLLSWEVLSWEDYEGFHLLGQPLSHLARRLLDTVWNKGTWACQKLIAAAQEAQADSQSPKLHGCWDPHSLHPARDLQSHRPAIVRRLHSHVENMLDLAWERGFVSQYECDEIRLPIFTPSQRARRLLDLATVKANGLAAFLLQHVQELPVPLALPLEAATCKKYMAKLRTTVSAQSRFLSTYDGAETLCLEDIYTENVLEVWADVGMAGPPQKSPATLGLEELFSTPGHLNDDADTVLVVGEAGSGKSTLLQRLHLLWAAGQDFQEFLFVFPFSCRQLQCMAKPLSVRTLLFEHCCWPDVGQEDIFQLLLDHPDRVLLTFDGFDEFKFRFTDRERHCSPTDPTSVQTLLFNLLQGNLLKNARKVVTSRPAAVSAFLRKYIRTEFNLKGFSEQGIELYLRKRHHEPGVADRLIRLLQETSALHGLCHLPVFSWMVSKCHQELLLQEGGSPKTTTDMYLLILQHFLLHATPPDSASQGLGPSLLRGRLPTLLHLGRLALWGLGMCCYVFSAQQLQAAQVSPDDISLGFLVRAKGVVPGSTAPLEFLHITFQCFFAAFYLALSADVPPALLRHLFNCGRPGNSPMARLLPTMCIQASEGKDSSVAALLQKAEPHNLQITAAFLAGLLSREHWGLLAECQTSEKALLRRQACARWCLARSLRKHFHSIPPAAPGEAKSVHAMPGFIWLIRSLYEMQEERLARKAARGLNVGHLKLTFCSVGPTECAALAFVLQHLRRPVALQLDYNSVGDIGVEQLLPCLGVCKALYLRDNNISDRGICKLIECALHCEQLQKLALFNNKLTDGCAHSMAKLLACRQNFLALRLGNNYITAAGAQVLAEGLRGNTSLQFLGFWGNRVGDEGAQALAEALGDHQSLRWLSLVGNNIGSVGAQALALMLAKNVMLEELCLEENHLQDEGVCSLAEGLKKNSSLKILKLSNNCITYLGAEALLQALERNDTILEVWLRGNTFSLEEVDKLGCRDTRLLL
T5 sequence (P09923 whole entry): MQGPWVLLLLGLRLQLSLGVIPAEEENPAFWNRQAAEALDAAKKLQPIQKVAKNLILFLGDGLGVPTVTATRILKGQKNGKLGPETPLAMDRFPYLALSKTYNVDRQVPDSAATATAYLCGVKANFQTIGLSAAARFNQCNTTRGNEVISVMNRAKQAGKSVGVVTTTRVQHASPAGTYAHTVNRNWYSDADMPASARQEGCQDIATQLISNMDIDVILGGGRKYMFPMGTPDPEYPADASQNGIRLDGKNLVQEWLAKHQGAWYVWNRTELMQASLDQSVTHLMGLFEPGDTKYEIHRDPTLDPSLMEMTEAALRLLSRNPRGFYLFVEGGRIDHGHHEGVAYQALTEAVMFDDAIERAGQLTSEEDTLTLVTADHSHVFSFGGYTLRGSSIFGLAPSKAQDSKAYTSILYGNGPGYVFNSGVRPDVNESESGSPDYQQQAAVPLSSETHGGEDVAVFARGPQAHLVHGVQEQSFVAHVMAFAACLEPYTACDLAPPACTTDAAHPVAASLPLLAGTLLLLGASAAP
T4 sequence (Q92731 whole entry): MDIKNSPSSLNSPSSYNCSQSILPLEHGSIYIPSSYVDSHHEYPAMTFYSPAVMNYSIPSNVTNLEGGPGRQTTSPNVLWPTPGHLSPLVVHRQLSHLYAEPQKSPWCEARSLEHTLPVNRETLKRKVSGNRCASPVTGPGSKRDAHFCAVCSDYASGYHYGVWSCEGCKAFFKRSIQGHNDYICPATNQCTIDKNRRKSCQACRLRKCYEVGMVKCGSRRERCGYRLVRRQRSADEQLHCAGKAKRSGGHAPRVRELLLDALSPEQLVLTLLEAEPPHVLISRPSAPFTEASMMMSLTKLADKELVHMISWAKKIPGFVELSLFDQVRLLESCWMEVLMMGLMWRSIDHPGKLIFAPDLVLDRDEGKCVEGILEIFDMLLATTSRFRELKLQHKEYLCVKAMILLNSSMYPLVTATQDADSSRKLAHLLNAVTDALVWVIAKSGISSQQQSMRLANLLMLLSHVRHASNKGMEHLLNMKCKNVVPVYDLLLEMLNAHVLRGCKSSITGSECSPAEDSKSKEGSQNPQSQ
Chain of Protein Rev (P05866 whole entry): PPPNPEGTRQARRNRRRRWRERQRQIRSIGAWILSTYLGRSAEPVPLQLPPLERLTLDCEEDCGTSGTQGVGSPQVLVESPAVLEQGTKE
Chain of Tumor necrosis factor (P01375 whole entry): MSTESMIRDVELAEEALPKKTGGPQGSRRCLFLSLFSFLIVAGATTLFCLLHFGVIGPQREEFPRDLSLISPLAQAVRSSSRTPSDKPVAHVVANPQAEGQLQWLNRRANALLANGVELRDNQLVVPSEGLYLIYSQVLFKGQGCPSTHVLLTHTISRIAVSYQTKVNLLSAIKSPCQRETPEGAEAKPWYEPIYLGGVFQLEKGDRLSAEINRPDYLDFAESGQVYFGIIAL
Chain of Wee1-like protein kinase (P30291 whole entry): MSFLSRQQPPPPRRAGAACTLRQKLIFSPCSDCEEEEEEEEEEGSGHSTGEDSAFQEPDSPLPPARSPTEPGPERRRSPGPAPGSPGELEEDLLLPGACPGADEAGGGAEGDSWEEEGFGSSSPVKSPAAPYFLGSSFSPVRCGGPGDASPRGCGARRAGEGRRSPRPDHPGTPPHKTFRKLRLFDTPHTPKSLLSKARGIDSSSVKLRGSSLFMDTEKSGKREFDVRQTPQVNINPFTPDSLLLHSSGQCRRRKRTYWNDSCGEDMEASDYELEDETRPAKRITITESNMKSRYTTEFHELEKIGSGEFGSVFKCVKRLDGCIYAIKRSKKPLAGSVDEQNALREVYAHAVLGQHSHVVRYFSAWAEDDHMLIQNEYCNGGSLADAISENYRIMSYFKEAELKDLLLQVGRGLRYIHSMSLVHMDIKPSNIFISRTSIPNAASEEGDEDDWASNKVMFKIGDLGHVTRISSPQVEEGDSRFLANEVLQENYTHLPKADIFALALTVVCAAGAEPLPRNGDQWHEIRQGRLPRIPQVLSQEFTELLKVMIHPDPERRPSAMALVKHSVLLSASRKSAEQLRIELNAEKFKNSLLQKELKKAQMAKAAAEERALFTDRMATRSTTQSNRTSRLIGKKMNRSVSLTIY
Chain of G2/mitotic-specific cyclin-B1 (P14635 whole entry): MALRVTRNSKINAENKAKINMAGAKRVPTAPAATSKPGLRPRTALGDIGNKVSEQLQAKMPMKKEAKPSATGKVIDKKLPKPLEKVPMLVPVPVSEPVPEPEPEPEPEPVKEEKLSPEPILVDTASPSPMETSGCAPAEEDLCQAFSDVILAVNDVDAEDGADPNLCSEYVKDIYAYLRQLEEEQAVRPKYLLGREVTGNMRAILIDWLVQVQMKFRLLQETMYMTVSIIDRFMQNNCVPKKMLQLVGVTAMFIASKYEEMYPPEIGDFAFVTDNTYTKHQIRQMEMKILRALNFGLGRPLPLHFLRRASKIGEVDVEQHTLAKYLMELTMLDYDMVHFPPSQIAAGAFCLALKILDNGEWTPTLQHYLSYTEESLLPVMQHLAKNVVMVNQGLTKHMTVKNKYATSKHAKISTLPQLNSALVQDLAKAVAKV
Chain of Bcl-2-like protein 10 (Q9HD36 whole entry): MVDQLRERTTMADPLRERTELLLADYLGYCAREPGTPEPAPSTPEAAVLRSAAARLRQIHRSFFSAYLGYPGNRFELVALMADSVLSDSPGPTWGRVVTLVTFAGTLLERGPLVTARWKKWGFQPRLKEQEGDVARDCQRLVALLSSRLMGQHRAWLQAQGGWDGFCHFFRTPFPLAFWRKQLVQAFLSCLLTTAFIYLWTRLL

Compound: C=CCn1c(SCCCc2ccccc2)nc2c1c(=O)[nH]c(=O)n2C
IC50 (Interleukin-8 [1]): > 25 µM (inactive) | IC50 [2]: > 20 µM (inactive) | IC50 [3]: > 25 µM (inactive) | IC50 [4]: 14.8 µM (active) | IC50 [5]: 9.33 µM (active) | IC50 [6]: > 20 µM (inactive) | IC50 (HEK293 [7]): > 20 µM (inactive) | IC50 (HEK293 [8]): > 20 µM (inactive) | IC50 (Tumor necrosis factor): > 20 µM (inactive) | IC50 (Interleukin-8 [9]): > 25 µM (inactive)

IC50 (Estrogen receptor beta [10]): 4.88 µM (active) | IC50 (Bcl-2-like protein 10): 20.5 µM (active) | IC50 (Estrogen receptor beta [11]): < 0.023 µM (not active)
Compound: Cc1ccc(S(=O)(=O)Cc2ccc(C(=O)N3CCc4ccccc4C3)o2)cc1

Compound: Cn1cnc(S(=O)(=O)Nc2ccc(OC(F)(F)F)cc2)c1
AC50 (Vibrio harveyi [12]): 4.67 µM (active) | AC50 (Vibrio harveyi [12]; Vibrio harveyi): 5.06 µM (active) | AC50 (Vibrio harveyi [13]): 3.13 µM (active)

Compound: COc1ccc(C2N=C(N)N=C(N)N2c2ccc(C)cc2)cc1 (stereo unspecified)
IC50 (Protein Rev): > 79.4 µM (not active)

EC50 (Wee1-like protein kinase): > 49.7 µM (inactive) | EC50 [14]: > 49.7 µM (inactive)
Compound: CCOC(=O)c1cccc(NC(=O)CCCOc2cc(=O)n(C)c3ccccc23)c1

IC50 [15]: > 100 µM (inactive) | EC50 [16]: > 100 µM (inactive)
Compound: COc1ccc(CC2CC(=O)N(c3ccc(C)cc3)C2=O)cc1 (stereo unspecified)
